Results taken from ChEMBL document CHEMBL1221353, “Synthesis and evaluation of amides surrogates of dopamine D3 receptor ligands” (Bioorg Med Chem Lett, 2010).

Columns and labels:
D(2) dopamine receptor = D(2) dopamine receptor (Homo sapiens, UniProt P14416); assay: Displacement of [3H]spiperone from human dopamine D2S receptor expressed in HEK293 cells; type: cell-based
[1] = target: T1, Alpha-1A adrenergic receptor (Homo sapiens, UniProt P35348); assay: Displacement of [3H]prazosin from human adrenergic alpha1A receptor
T1 sequence (P35348 whole entry): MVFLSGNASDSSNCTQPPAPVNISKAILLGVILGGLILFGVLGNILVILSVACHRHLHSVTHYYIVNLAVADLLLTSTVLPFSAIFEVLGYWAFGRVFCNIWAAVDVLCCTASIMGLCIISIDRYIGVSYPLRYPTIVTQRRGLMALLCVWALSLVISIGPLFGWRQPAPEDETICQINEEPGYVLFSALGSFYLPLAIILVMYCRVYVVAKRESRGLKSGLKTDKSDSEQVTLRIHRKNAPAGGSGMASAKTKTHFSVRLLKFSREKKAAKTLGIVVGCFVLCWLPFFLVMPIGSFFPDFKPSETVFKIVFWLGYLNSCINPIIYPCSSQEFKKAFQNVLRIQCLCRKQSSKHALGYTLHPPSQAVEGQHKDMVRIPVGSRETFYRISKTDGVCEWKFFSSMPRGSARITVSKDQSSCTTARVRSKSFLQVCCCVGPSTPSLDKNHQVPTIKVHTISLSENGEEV

Homo sapiens [2] = species: Homo sapiens; assay: Selectivity ratio of Ki for human dopamine D2S receptor to Ki for human dopamine D3 receptor
Rattus norvegicus = assay: Absolute bioavailability in rat plasma at 10 mg/kg, po and 3 mg/kg, iv; type: ADME, organism-based; conditions: in vivo
Mus musculus = assay: Absolute bioavailability in mouse plasma at 10 mg/kg dose po and iv; type: ADME, organism-based; conditions: in vivo
Homo sapiens [3] = species: Homo sapiens; assay: Selectivity ratio of Ki for human adrenergic alpha1A receptor to Ki for human dopamine D3 receptor
D(3) dopamine receptor = D(3) dopamine receptor (Homo sapiens, UniProt P35462); assay: biochemical
Chain of D(3) dopamine receptor (P35462 whole entry): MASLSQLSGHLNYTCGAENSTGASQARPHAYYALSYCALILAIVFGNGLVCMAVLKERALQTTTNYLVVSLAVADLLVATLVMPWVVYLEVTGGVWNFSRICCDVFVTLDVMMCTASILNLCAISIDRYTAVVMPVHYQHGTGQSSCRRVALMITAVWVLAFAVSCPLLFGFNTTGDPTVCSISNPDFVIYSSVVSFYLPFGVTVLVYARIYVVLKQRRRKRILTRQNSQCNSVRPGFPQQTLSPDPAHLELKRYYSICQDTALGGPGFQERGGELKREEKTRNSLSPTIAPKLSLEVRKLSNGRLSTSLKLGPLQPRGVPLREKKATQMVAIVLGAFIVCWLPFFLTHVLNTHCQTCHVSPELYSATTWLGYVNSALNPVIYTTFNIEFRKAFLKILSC
Description: Displacement of [3H]spiperone from human dopamine D3 receptor expressed in CHO cells

Chain of D(2) dopamine receptor (P14416 whole entry): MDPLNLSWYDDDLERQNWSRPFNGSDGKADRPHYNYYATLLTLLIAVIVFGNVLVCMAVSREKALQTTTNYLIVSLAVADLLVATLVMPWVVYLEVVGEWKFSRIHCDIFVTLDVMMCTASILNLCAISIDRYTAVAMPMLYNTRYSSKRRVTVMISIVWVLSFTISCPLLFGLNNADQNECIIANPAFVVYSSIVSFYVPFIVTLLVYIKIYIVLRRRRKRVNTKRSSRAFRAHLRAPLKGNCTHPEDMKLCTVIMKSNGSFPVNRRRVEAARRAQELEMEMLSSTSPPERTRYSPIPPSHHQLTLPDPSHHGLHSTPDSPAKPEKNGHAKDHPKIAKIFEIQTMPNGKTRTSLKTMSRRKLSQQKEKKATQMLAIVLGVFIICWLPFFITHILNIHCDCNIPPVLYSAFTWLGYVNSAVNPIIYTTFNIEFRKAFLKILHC

Row | SMILES | Ki (D(2) dopamine receptor) [µM] | Ki [1] [µM] | Ratio Ki (Homo sapiens [2]) | bioavailability (Rattus norvegicus) | bioavailability (Mus musculus) | Ratio Ki (Homo sapiens [3]) | Ki (D(3) dopamine receptor) [µM]
1 | FC(F)(F)c1cccc(N2CCN(CCCCNc3cc(-c4ccccc4)ccn3)CC2)c1 | 0.194 | 0.119 | 256 | 0.65 | 0.4 | 157 | 
2 | FC(F)(F)c1cccc(N2CCN(CCCCNc3nc(-c4ccccc4)cs3)CC2)c1 | 2.43 | 0.072 | 183 |  |  | 5.4 | 0.013
3 | Clc1cccc(N2CCN(CCCCNc3nccc4ccccc34)CC2)c1Cl |  | 0.06 |  |  |  |  | 
4 | Clc1cccc(N2CCN(CCCCNc3ccccn3)CC2)c1Cl |  | 0.033 |  |  |  |  | 
5 | FC(F)(F)c1cccc(N2CCN(CCCCNc3ncc(-c4ccccc4)o3)CC2)c1 | 2.32 | 0.272 | 242 |  |  | 28 | 0.0096
6 | FC(F)(F)c1cccc(N2CCN(CCCCNc3ccccn3)CC2)c1 | 0.198 | 0.593 | 12 |  |  | 35 | 0.017
7 | Cc1cccc(N2CCN(CCCCNc3ccccn3)CC2)c1C | 0.207 | 0.04 | 17 |  |  | 3 | 0.012
8 | Clc1cccc(N2CCN(CCCCNc3ccc4ccccc4n3)CC2)c1Cl | 0.023 | 0.046 | 39 |  |  | 77 | 0.0006
9 | FC(F)(F)c1cccc(N2CCN(CCCCNc3ccc(-c4ccccc4)cn3)CC2)c1 | 0.143 | 0.227 | 130 |  |  | 207 | 0.0011
10 | Clc1cccc(N2CCN(CCCCNc3cc(-c4ccccc4)ccn3)CC2)c1Cl | 0.184 | 0.058 | 334 |  |  | 106 | 
11 | FC(F)(F)c1cccc(N2CCN(CCCCNc3nccc4ccccc34)CC2)c1 | 0.058 | 0.068 | 58 |  |  | 68 | 0.001

Molecules with a lower Ki [1], results first:

Row | Ki (D(2) dopamine receptor) [µM] | Ki [1] [µM] | Ratio Ki (Homo sapiens [2]) | bioavailability (Rattus norvegicus) | bioavailability (Mus musculus) | Ratio Ki (Homo sapiens [3]) | Ki (D(3) dopamine receptor) [µM] | SMILES
12 | 0.198 | 0.023 | 247 |  |  | 29 | 0.0008 | COc1ccccc1N1CCN(CCCCNc2ccccn2)CC1
13 | 0.041 | 0.021 | 69 |  |  | 35 | 0.00059 | Clc1cccc(N2CCN(CCCCNc3ccc(-c4ccccc4)cn3)CC2)c1Cl
14 | 0.133 | 0.017 | 12 |  |  | 1.5 | 0.011 | Fc1ccccc1N1CCN(CCCCNc2ccccn2)CC1
15 | 0.383 | 0.014 | 12 |  |  | 0.4 | 0.032 | Cc1ccccc1N1CCN(CCCCNc2ccccn2)CC1
16 | 0.053 | 0.012 | 33 |  |  | 7.5 | 0.0016 | FC(F)(F)c1cccc(N2CCN(CCCCNc3ccc4ccccc4n3)CC2)c1
17 | 0.122 | 0.01 | 49 |  |  | 4 | 0.0025 | Fc1ccccc1N1CCN(CCCCNc2ccc(-c3ccccc3)cn2)CC1
18 | 0.309 | 0.009 | 206 |  |  | 6 | 0.0015 | Fc1ccccc1N1CCN(CCCCNc2cc(-c3ccccc3)ccn2)CC1
19 |  | 0.006 |  |  |  |  |  | COc1ccccc1N1CCN(CCCCNc2ccc3ccccc3n2)CC1
20 | 0.07 | 0.006 | 70 |  |  | 6.3 | 0.001 | COc1ccccc1N1CCN(CCCCNc2nccc3ccccc23)CC1
